Activity calls are given as the source filed them. The calls are words filed in the database; no cut-off is given here.
Assays:
[1] = target: T1, Free fatty acid receptor 3 (Rattus norvegicus) (UniProt B2GV46); test: Agonist activity at rat GPR41 expressed in HEK293T cell membranes co-expressing Go1alpha protein assessed as stimulation of [35S]GTPgammaS binding at 0.1 microM to 0.1 M incubated for 30 mins by scintillation counting method; assay type: functional; conditions: HEK-293T
T1 sequence (whole entry): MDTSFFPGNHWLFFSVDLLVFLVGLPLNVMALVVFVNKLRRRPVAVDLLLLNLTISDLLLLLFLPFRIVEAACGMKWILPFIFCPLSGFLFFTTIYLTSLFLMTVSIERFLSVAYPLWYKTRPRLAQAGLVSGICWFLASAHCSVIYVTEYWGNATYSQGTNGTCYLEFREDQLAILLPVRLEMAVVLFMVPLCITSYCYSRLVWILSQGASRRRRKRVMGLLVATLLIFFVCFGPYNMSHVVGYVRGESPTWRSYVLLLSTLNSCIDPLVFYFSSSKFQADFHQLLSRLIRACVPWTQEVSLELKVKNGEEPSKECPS

[2] = target: T2, Free fatty acid receptor 3 (Homo sapiens) (UniProt O14843); test: Agonist activity at human GPR41 expressed in HEK293T cell membranes co-expressing Go1alpha protein assessed as stimulation of [35S]GTPgammaS binding at 0.1 microM to 0.1 M incubated for 30 mins by scintillation counting method; assay type: functional; conditions: HEK-293T
T2 sequence (whole entry): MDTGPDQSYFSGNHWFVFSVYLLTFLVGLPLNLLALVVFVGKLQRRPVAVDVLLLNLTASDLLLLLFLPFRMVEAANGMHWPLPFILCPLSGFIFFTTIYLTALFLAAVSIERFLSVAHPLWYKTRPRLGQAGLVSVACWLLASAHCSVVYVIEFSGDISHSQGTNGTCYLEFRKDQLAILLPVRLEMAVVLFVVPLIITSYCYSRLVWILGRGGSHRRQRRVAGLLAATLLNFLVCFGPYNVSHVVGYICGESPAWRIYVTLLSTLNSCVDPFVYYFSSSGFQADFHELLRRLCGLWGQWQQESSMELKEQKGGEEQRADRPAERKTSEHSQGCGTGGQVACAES

[3] = target: T1, Free fatty acid receptor 3 (Rattus norvegicus); test: Agonist activity at GPR41 in rat primary adipocytes assessed as inhibition of isoprenaline-induced lipolysis by measuring glycerol level after 2 hrs; assay type: cell-based
[4] = target: T2, Free fatty acid receptor 3 (Homo sapiens); test: Agonist activity at human GPR41 expressed in HEK293T cell membranes co-expressing Go1lpha protein assessed as stimulation of [35S]GTPgammaS binding at 1 microM to 0.1 M incubated for 30 mins by scintillation counting method; assay type: functional; conditions: HEK-293T
[5] = target: T1, Free fatty acid receptor 3 (Rattus norvegicus); test: Agonist activity at rat GPR41 expressed in Saccharomyces cerevisiae MMY11 co-expressing chimeric Gpa1/Galpha13 at 0.5 mM to 50 mM incubated for 48 hrs by induction of FUSl-lacZ and FUS1-HIS3 reporter gene induction based pheromone response pathway coupled assay
[6] = target: T1, Free fatty acid receptor 3 (Rattus norvegicus); test: Agonist activity at rat GPR41 expressed in Saccharomyces cerevisiae MMY11 co-expressing chimeric Gpa1/Ga0 at 0.5 mM to 50 mM incubated for 48 hrs by induction of FUSl-lacZ and FUS1-HIS3 reporter gene induction based pheromone response pathway coupled assay
[7] = target: T1, Free fatty acid receptor 3 (Rattus norvegicus); test: Agonist activity at rat GPR41 expressed in Saccharomyces cerevisiae MMY11 co-expressing chimeric Gpa1/Galpha12 at 0.5 mM to 50 mM incubated for 48 hrs by induction of FUSl-lacZ and FUS1-HIS3 reporter gene induction based pheromone response pathway coupled assay

Compound | Activity [1] | Activity [2] | Activity [3] | further results
CC(=O)[O-].N.O=CO.[Na+] | Active | Active | Dose-dependent effect | –
CC(=O)[O-].[Na+] | – | – | Dose-dependent effect | –
CCCC(=O)[O-].CCCCC(=O)[O-].[K+].[Na+] | – | Active | – | –
CCCCC(=O)[O-].[K+] | – | – | Active | –
CC(O)CC(=O)O (racemic) | – | – | – | Activity [4]: Active
CCC(=O)[O-].[Na+] [SODIUM PROPIONATE] | Active | Active | Dose-dependent effect | Activity [5]: Active; Activity [6]: Active; Activity [7]: Active
